Data as given in patent US9504729B2, “Antiangiogenic small molecules and methods of use” (The United States of America, as represented by the …, priority 2009, dated 2016).

Tested on: angiogenesis genes in dermal microvascular endothelial cells
Test: Real time RT-PCR of angiogenesis gene expression during endothelial tube formation
Type: cell-based
Conditions: 1 μM SM, 24 hours
Description: For gene expression studies, three independent experiments were run for each SM tested. 90.000 cells/well (6 wells/treatment) of dermal microvascular endothelial cells (Lonza, Walkersville, Md.) were seeded on polymerized GELTREX™ gel matrix (Invitrogen, Carlsbad, Calif.) in 24 well plates. Wells were immediately treated with the same volume of 1 μM SM or PBS. After 24 hours incubation at 37° C. and 5% CO2, cells were extracted using Cell Recovery Solution (BD Biosciences, San Jose, Calif., Cat. #354253). Total RNA was extracted with the RNeasy Mini Kit (Qiagen, Valencia, Calif., Cat. #74104), and retrotranscribed using […]® First-Strand reverse transcriptase (Invitrogen, Carlsbad, Calif., Cat. #11904-018). The real time PCR reactions were performed in an Opticon 2 cycler (MJ Research, Waltham, Mass.). Amplification was performed in a final volume of 25 μl, containing 2 μl cDNA (1:10 dilution from the reversed transcribed reaction) and 2 μl of primer mixture (10 μM each of forward and reverse primers). Samples were amplified as follows: after initial denaturation at 95 C for 2 minutes, reactions were run for 46 cycles at 95° C. for 30 seconds, 60° C. for 30 seconds, and 72° C. for 45 seconds. Fluorescence was measured in every cycle and a melting curve was run after the PCR by increasing temperature from 50 to 96° C. (in 0.5° C. increments). A defined single peak was obtained for all amplicons, thus confirming the specificity of the amplification.
The genes that were monitored were selected based on their relevance to the angiogenesis process. All experiments were done in triplicate. The results are shown in the volcano plots of FIG. 17. Log 2 fold-change is presented in the X-axis and log 10 P value in the Y-axis.

## COC(=O)C1CC(=O)C(C(=O)OC)CC1=O (centres unmarked) [Compound 122567]
  Log2 fold-change of gene expression: 1839: 1.0
  Log2 fold-change of gene expression: 4247: 0.3
  Log2 fold-change of gene expression: 5569: 0.8
  Log2 fold-change of gene expression: 8131: 0.1
  Log2 fold-change of gene expression: 9569: −2.2
  Log2 fold-change of gene expression: 10988: 1.2
  Log2 fold-change of gene expression: 23001: −0.5
  Log2 fold-change of gene expression: 55332: −1.0
  Log2 fold-change of gene expression: 57722: 0.1
  Log2 fold-change of gene expression: 58488: 1.5
  Log2 fold-change of gene expression: 90780: −1.9
  Log2 fold-change of gene expression: 134265: −0.2
  Log2 fold-change of gene expression: AKT1: −1.6
  Log2 fold-change of gene expression: ANGPT1: 1.6
  Log2 fold-change of gene expression: ANGPT2: −0.9
  Log2 fold-change of gene expression: ANGPTL3: −1.7
  Log2 fold-change of gene expression: ANGPTL4: −0.4
  Log2 fold-change of gene expression: ANPEP: −1.2
  Log2 fold-change of gene expression: ANTXR1: −3.5
  Log2 fold-change of gene expression: APOE: 0.8
  Log2 fold-change of gene expression: ARHGEF1: −5.0
  Log2 fold-change of gene expression: Acvrl1: −1.3
  Log2 fold-change of gene expression: Adcy4: −0.4
  Log2 fold-change of gene expression: BAL1: 0.2
  Log2 fold-change of gene expression: BMP1: 0.9
  Log2 fold-change of gene expression: C1orf54: −3.4
  Log2 fold-change of gene expression: CALD1: 2.3
  Log2 fold-change of gene expression: CCL2: 2.5
  Log2 fold-change of gene expression: CCL11: 0.6
  Log2 fold-change of gene expression: CD248: 1.2
  Log2 fold-change of gene expression: CDH5: −1.9
  Log2 fold-change of gene expression: CENTD3: 1.1
  Log2 fold-change of gene expression: CLIC1: 0.9
  Log2 fold-change of gene expression: COL4A3: 1.9
  Log2 fold-change of gene expression: COL18A1: 1.6
  Log2 fold-change of gene expression: COMT: −1.5
  Log2 fold-change of gene expression: CST4: 1.3
  Log2 fold-change of gene expression: CTTNBP2NL: −0.9
  Log2 fold-change of gene expression: CXCL3: 4.0
  Log2 fold-change of gene expression: CXCL5: 4.3
  Log2 fold-change of gene expression: CXCL6: 1.1
  Log2 fold-change of gene expression: CXCL9: 1.6
  Log2 fold-change of gene expression: CXCL10: 3.7
  Log2 fold-change of gene expression: Calcr1: −4.0
  Log2 fold-change of gene expression: Caskin2: −2.3
  Log2 fold-change of gene expression: Ccbp2: 1.4
  Log2 fold-change of gene expression: Cldn5: 0.0
  Log2 fold-change of gene expression: DGKG: 2.0
  Log2 fold-change of gene expression: DKK3: −1.9
  Log2 fold-change of gene expression: DLL4: −8.7
  Log2 fold-change of gene expression: DUT: −1.8
  Log2 fold-change of gene expression: EFNA1: −0.3
  Log2 fold-change of gene expression: EFNA3: −0.4
  Log2 fold-change of gene expression: EFNB2: −4.0
  Log2 fold-change of gene expression: EGF: −0.3
  Log2 fold-change of gene expression: ENG: −1.7
  Log2 fold-change of gene expression: EPHB4: −0.5
  Log2 fold-change of gene expression: EREG: 1.9
  Log2 fold-change of gene expression: ESAM1: −2.9
  Log2 fold-change of gene expression: EXTL3: 0.3
  Log2 fold-change of gene expression: Egf17: −2.6
  Log2 fold-change of gene expression: Ehd4: −0.8
  Log2 fold-change of gene expression: Entpd1: −0.3
  Log2 fold-change of gene expression: Epas1: 0.9
  Log2 fold-change of gene expression: EphB1: 0.8
  Log2 fold-change of gene expression: Erg: 2.4
  Log2 fold-change of gene expression: FGF1: 1.9
  Log2 fold-change of gene expression: FGF2: −0.7
  Log2 fold-change of gene expression: FGFR3: 1.2
  Log2 fold-change of gene expression: FIGF: −0.1
  Log2 fold-change of gene expression: FLT1: −4.4
  Log2 fold-change of gene expression: Fgd5: −1.5
  Log2 fold-change of gene expression: GPCR124: −3.7
  Log2 fold-change of gene expression: GRRP1: −0.3
  Log2 fold-change of gene expression: Grp116: −2.3
  Log2 fold-change of gene expression: HAND2: 0.4
  Log2 fold-change of gene expression: HGF: 1.3
  Log2 fold-change of gene expression: HIF1A: −3.1
  Log2 fold-change of gene expression: HPSE: −8.3
  Log2 fold-change of gene expression: Hspa12b: −3.4
  Log2 fold-change of gene expression: ID1: −0.2
  Log2 fold-change of gene expression: ID3: −0.3
  Log2 fold-change of gene expression: IFNA1: 1.1
  Log2 fold-change of gene expression: IFNB1: 1.2
  Log2 fold-change of gene expression: IFNG: 8.3
  Log2 fold-change of gene expression: IGF1: −0.1
  Log2 fold-change of gene expression: IL1B: −0.1
  Log2 fold-change of gene expression: IL6: 14.4
  Log2 fold-change of gene expression: IL8: 7.4
  Log2 fold-change of gene expression: ITGAV: −2.7
  Log2 fold-change of gene expression: ITGB3: −1.4
  Log2 fold-change of gene expression: Icam1: 0.0
  Log2 fold-change of gene expression: Icam2: 0.1
  Log2 fold-change of gene expression: JAG1: 0.6
  Log2 fold-change of gene expression: KDR: −2.3
